Measurements reported in patent US20210213020A1, “METHODS AND PHARMACEUTICAL COMPOSITIONS FOR TREATING CANCER” (INSERM (INSTITUT NATIONAL DE LA SANTÉ ET DE LA RECHIRCHE …, priority 2018, published 2021).

Legend:
[1] = system: HT29 human colorectal carcinoma cell line; assay: Cytotoxicity (cell growth inhibition) in vitro, 72 h exposure, HT29; format: cell-based; conditions: HT-29, 72 hour-incubation, FA 20 μmol/L and/or PLP 160 μmol/L where present, read-out: IC50 in μmol/L of FUra (95% CI)
Method: (§1) The human colorectal carcinoma cell lines HT29, and HCT116 and the murine L1210 lymphocytic leukemia were thawed from mycoplasma-free frozen stocks and were controlled for contamination. Cells were grown in customized DMEM cell culture medium without any B6-vitamer (Gibco; Life Technologies) supplemented with 10% FBS and antibiotics (streptomycin, 50 μg/ml, and penicillin, 50 U/ml) at 37° C. in an atmosphere containing 5% CO2.
(§2) Cancer cells were exposed in 12 well-cell plates to FUra in various concentrations under four conditions; either as a single agent [FUra]; in combination with [6R,S]-folinic acid (20 μmon) [FUra-FA]; in combination with PLP (160 μmon; Sigma-Aldrich) [FUra-PLP]; and with both agents [6R,S]-folinic acid (20 μmon), and PLP (160 μmon) together [FUra-AF-PLP]. Cells were harvested 72 hours from start of the exposure. Cell viability was measured with the Trypan Blue dye exclusion test in Malassez chambers or by flow cytometry. For the latter method, living cells defined by light double scatter were counted in a BD Accuri C6 flow cytometer (BD Biosciences). Experiments were in duplicate.
(§3) Growth inhibition data obtained with FUra as a single agent [FUra], FUra with folinic acid [FUra-FA], FUra with PLP [FUra-PLP], and FUra with both folinic acid and PLP combined [FUra-FA-PLP] were studied according to the Median Effect principle for concentration-effect analysis. […]

[2] = system: L1210 murine lymphocytic leukemia; assay: Cytotoxicity (cell growth inhibition) in vitro, 72 h exposure, L1210; format: cell-based; conditions: Mus musculus, 72 hour-incubation, FA 20 μmol/L and/or PLP 160 μmol/L where present, read-out: IC50 in μmol/L of FUra (95% CI)
Method: as §1, §2, §3

[3] = system: HCT116 human colorectal carcinoma cell line; assay: Cytotoxicity (cell growth inhibition) in vitro, 72 h exposure, HCT116; format: cell-based; conditions: HCT-116, 72 hour-incubation, FA 20 μmol/L and/or PLP 160 μmol/L where present, read-out: IC50 in μmol/L of FUra (95% CI)
Method: as §1, §2, §3

[4] = molecular target: T1, Human recombinant cytoplasmic cSHMT (Homo sapiens, UniProt P34896); conditions: human recombinant cytoplasmic cSHMT (ref 22); read-out: Kd of SHMT for PLP; cited from earlier work
T1 sequence (P34896 1-483): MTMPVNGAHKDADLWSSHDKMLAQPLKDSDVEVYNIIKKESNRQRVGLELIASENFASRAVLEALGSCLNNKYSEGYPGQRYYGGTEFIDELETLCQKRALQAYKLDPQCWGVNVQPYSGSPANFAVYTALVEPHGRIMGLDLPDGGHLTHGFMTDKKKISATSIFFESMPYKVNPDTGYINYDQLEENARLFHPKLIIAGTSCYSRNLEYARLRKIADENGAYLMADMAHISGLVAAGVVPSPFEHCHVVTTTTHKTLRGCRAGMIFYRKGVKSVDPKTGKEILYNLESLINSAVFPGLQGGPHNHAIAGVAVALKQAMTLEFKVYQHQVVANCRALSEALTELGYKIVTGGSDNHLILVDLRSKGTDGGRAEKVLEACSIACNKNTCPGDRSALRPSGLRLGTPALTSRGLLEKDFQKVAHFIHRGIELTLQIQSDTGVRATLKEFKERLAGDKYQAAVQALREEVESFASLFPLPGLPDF

[5] = molecular target: purified rabbit liver SHMT; conditions: read-out: Kd of SHMT for PLP; cited from earlier work
[6] = molecular target: T2, human recombinant SHMT1 (Homo sapiens, UniProt P34896); conditions: human recombinant SHMT1 (ref 23); read-out: Kd of SHMT for PLP; cited from earlier work
T2 sequence (P34896 1-483): T1 sequence (P34896 1-483)

[7] = molecular target: T3, human recombinant SHMT2 (Homo sapiens, UniProt P34897); conditions: human recombinant SHMT2 (ref 23); read-out: Kd of SHMT for PLP; cited from earlier work
T3 sequence (P34897 30-504): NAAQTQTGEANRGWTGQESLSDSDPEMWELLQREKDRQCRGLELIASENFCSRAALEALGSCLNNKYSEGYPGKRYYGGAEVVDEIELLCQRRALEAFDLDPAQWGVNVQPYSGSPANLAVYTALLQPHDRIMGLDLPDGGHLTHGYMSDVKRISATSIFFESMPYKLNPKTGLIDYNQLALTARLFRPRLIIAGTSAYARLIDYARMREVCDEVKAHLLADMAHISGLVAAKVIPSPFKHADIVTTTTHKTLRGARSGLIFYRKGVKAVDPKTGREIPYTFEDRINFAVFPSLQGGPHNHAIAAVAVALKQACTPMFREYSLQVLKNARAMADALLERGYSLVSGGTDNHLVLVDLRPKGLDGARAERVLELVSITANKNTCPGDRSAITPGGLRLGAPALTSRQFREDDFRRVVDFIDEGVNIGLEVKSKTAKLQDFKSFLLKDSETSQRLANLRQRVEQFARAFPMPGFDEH

[8] = system: Cancer cells; assay: Cytotoxic properties per se of folinic acid and PLP; format: cell-based; conditions: in concentrations used in the present experiment (folinic acid 20, PLP 160 μmon)
Method: as §2

[9] = female, Balb/C, mouse, in vivo; for Time by which erythrocyte PLP levels approach baseline concentrations after injection: ip
Source text: Blood was collected in heparin. Measurements of B6 vitamers were done by HPLC.28

[10] = mice, one or two injections of PM at 150 or 450 mg/kg

## O=c1[nH]cc(F)c(=O)[nH]1 [FUra, 5-fluorouracil]
[1]
  IC50: 1.18 µmol/L
[2]
  IC50: 0.47 µmol/L
[3]
  IC50: 1.31 µmol/L

## Cc1ncc(COP(=O)(O)O)c(C=O)c1O [PLP, pyridoxal 5′-phosphate]
[4]
  Kd: 850 nM
[5]
  Kd: 700 nM
[6]
  Kd: 250 nM
[7]
  Kd: 440 nM
[8]
  Cytotoxic properties per se: neither folinic acid nor PLP carry cytotoxic properties per se

## Cc1ncc(CO)c(CN)c1O [PM, pyridoxamine]
[9]
  Peak erythrocyte PLP concentration, 450 mg/kg versus 150 mg/kg: about 6 fold
  Time by which erythrocyte PLP levels approach baseline concentrations after injection: ≤ 12 h
[10]
  Signs of acute toxicity: No signs of acute toxicity

## Cc1ncc(CO)c(CO)c1O [PN, pyridoxine, reference compound]
[9]
  Time by which erythrocyte PLP levels approach baseline concentrations after injection: ≤ 12 h

## Nc1nc2c(c(=O)[nH]1)N(C=O)C(CNc1ccc(C(=O)N[C@@H](CCC(=O)O)C(=O)O)cc1)CN2 (stereo partly shown) [folinic acid, N5-formyl tetra hydro pteroylglutamate, reference compound]
[8]
  Cytotoxic properties per se: neither folinic acid nor PLP carry cytotoxic properties per se
